Assay results published in US10590085B2, “Heterocyclic amides as kinase inhibitors” (GlaxoSmithKline Intellectual Property Development Limited, priority 2015, dated 2020).
Blank lines part the entries; values can stand above or below the molecule they belong to.

Legend:
[1] = system: TNF/zVAD induced temperature loss in mice; experiment: TNF-driven systemic inflammatory response syndrome model using TNF plus zVAD (temperature loss); format: in vivo, mouse
[2] = system: mouse L929 fibrosarcoma cells; experiment: necroptosis assay in L929 cells; format: cell-based; settings: viability by cellular ATP (Cell Titer-Glo), read-out: mean pIC50, inhibition of necrosis in L929 cells (converted)
Protocol: The efficacy of RIP1 inhibitors can be tested […] in vitro using a human monocytic leukemia U937 or mouse L929 fibrosarcoma cells in a necroptosis assay. As determined using the method described in He, S. et al. 2009. Cell 137(6):1100-1111 and International Patent Appln. No. PCT/IB2014/059004, now, International Patent Appln. Pub.
Viability was measured by quantitating cellular levels of ATP using the Cell Titer-Glo kit. All data are means±standard deviation of the mean.

[3] = background statement; cited from earlier work
RIP1 kinase [4] = settings: ischemic brain injury, retinal ischemia/reperfusion injury, Huntington's disease, renal ischemia reperfusion injury, cisplatin induced kidney injury, traumatic brain injury; cited from earlier work
RIP1 kinase [5] = target: T1, RIP1 kinase (Homo sapiens, UniProt Q13546); experiment: fluorescent polarization based binding assay; settings: mean value, minimum of 2 experiments
T1 sequence (Q13546 1-375 limits assumed): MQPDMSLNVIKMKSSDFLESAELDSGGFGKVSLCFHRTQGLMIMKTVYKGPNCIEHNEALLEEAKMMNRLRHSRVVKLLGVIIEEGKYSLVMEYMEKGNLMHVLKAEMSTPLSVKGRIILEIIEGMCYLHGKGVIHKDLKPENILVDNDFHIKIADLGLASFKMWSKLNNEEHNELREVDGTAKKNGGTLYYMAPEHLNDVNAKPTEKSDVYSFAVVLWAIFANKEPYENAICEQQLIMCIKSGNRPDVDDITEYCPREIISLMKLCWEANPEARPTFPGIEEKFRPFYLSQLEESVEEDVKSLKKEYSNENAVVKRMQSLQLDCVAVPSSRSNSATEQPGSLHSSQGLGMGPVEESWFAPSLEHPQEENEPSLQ
Description: A fluorescent polarization based binding assay was used to asses the activity of the compounds of this invention, the details of which are disclosed in International Patent Appln. No. PCT/IB2014/059004, now, International Patent Appln. Pub.

[6] = system: TNF induced temperature loss in mice; experiment: TNF (alone) version of the systemic inflammatory response syndrome model (temperature loss); format: in vivo, mouse
Description: The model can be run in a long modality (using TNF alone i.v.) which results in the termination of the study in ˜8 hrs (under IACUC guidelines for temperature loss). […] All data are shown as means±standard error of the mean.

Compound: CC(C)(C)C(=O)N1N=CC[C@H]1c1ccccc1 [Example 13, (S)-2,2-dimethyl-1-(5-phenyl-4,5-dihydro-1H-pyrazol-1-yl)propan-1-one]
% Inhibition ([1]; 20 mg/kg IP, pre-dosed 15 minutes before i.v. mouse TNF (30 μg/mouse) and zVAD (0.4 mg/mouse)): 80%
IC50 [2]: ~5.01 nM

Compound: CN1C(=O)C(Cc2c[nH]c3ccccc23)NC1=S (centres unmarked) [Necrostatin-1]
oral bioavailability [3]: poor
effectiveness in alleviating disease (RIP1 kinase [4]): effective

Compound: CC(C)(C)C(=O)N1N=CC[C@H]1c1ccccn1 [Example 48, (S)-2,2-dimethyl-1-(5-(pyridin-2-yl)-4,5-dihydro-1H-pyrazol-1-yl)-propan-1-one]
% Inhibition ([1]; 0.5 mg/kg IP, pre-dosed 15 minutes before i.v. mouse TNF and zVAD): 17%
% Inhibition ([1]; 5 mg/kg IP, pre-dosed 15 minutes before i.v. mouse TNF and zVAD): 52%
% Inhibition ([1]; 50 mg/kg IP, pre-dosed 15 minutes before i.v. mouse TNF and zVAD): 91%
IC50 [2]: ~200 nM

IC50 (RIP1 kinase [5]): ~31.6 nM
Compound: CC(=O)N1CCC(C(=O)N2N=CC[C@H]2c2cc(F)cc(F)c2)CC1 [Example 203, (S)-1-(4-(5-(3,5-difluorophenyl)-4,5-dihydro-1H-pyrazole-1-carbonyl)piperidin-1-yl)ethanone]
% Inhibition ([1]; 1 mg/kg PO, pre-dosed 15 minutes before i.v. mouse TNF and zVAD): 9%
% Inhibition ([1]; 10 mg/kg PO, pre-dosed 15 minutes before i.v. mouse TNF and zVAD): 46%
% Inhibition ([1]; 100 mg/kg PO, pre-dosed 15 minutes before i.v. mouse TNF and zVAD): 88%
% Inhibition ([6]; 1 mg/kg orally pre-dosed 15 minutes before i.v. mouse TNF (30 μg/mouse) alone): −14%
% Inhibition ([6]; 10 mg/kg orally pre-dosed 15 minutes before i.v. mouse TNF alone): 45%
% Inhibition ([6]; 100 mg/kg orally pre-dosed 15 minutes before i.v. mouse TNF alone): 86%

Compound: CC(C)(C)C(=O)N1N=CC[C@H]1c1ccc(Cl)cc1 [Example 66, (S)-1-(5-(4-chlorophenyl)-4,5-dihydro-1H-pyrazol-1-yl)-2,2-dimethyl-propan-1-one]
% Inhibition ([1]; 0.1 mg/kg IP, pre-dosed 15 minutes before i.v. mouse TNF and zVAD): 52%
IC50 [2]: ~0.00158 nM
